Measurements from PubChem BioAssay (NCI).
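48-hour exposure; five concentrations; linearly interpolated endpoints. GI50 = concentration required for 50% inhibition of growth. TGI denotes the concentration required for complete inhibition of growth.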

Legend:
Experiment in all cases: growth of human tumour cells (NCI), 48 h
HOP-62 NSCLC = tested on: HOP-62 NSCLC
NCI/ADR-RES ovarian = tested on: NCI/ADR-RES ovarian
NCI-H23 lung = tested on: NCI-H23 lung
PC-3 prostate = tested on: PC-3 prostate
OVCAR-8 ovarian = tested on: OVCAR-8 ovarian
OVCAR-3 ovarian = tested on: OVCAR-3 ovarian
OVCAR-4 ovarian = tested on: OVCAR-4 ovarian
SR leukemia = tested on: SR leukemia
HCT-116 colon = tested on: HCT-116 colon
CCRF-CEM leukemia = tested on: CCRF-CEM leukemia
U251 CNS = tested on: U251 CNS
SK-MEL-5 melanoma = tested on: SK-MEL-5 melanoma
MCF7 breast = tested on: MCF7 breast
SNB-19 CNS = tested on: SNB-19 CNS
A549 NSCLC = tested on: A549 NSCLC
RXF 393 renal = tested on: RXF 393 renal
HOP-92 NSCLC = tested on: HOP-92 NSCLC
BT-549 breast = tested on: BT-549 breast
MALME-3M melanoma = tested on: MALME-3M melanoma
NCI-H460 lung = tested on: NCI-H460 lung
IGROV1 ovarian = tested on: IGROV1 ovarian
NCI-H522 lung = tested on: NCI-H522 lung
KM12 colon = tested on: KM12 colon
COLO 205 colon = tested on: COLO 205 colon
ACHN renal = tested on: ACHN renal
HCC-2998 colon = tested on: HCC-2998 colon
HCT-15 colon = tested on: HCT-15 colon
MDA-MB-435 = tested on: MDA-MB-435
M14 melanoma = tested on: M14 melanoma
LOX IMVI melanoma = tested on: LOX IMVI melanoma
HT29 colon = tested on: HT29 colon
T-47D breast = tested on: T-47D breast
SK-MEL-2 melanoma = tested on: SK-MEL-2 melanoma
MDA-MB-231 breast = tested on: MDA-MB-231 breast
SW-620 colon = tested on: SW-620 colon
UO-31 renal = tested on: UO-31 renal
SF-268 CNS = tested on: SF-268 CNS
SN12C renal = tested on: SN12C renal
CAKI-1 renal = tested on: CAKI-1 renal
MOLT-4 leukemia = tested on: MOLT-4 leukemia
OVCAR-5 ovarian = tested on: OVCAR-5 ovarian
SK-MEL-28 melanoma = tested on: SK-MEL-28 melanoma
SF-295 CNS = tested on: SF-295 CNS
HS 578T breast = tested on: HS 578T breast
K-562 leukemia = tested on: K-562 leukemia
786-0 renal = tested on: 786-0 renal
EKVX NSCLC = tested on: EKVX NSCLC
UACC-62 melanoma = tested on: UACC-62 melanoma
RPMI-8226 leukemia = tested on: RPMI-8226 leukemia
DU-145 prostate = tested on: DU-145 prostate
NCI-H226 lung = tested on: NCI-H226 lung
UACC-257 melanoma = tested on: UACC-257 melanoma
SK-OV-3 ovarian = tested on: SK-OV-3 ovarian
SF-539 CNS = tested on: SF-539 CNS
TK-10 renal = tested on: TK-10 renal

Cn1c(Cc2ccccc2)nc2cc3ccccc3cc21
GI50 (HOP-62 NSCLC): 38.3 µM | TGI (HOP-62 NSCLC): > 100 µM | GI50 (NCI/ADR-RES ovarian): 24.8 µM | TGI (NCI/ADR-RES ovarian): 68.7 µM | GI50 (NCI-H23 lung): 43 µM | TGI (NCI-H23 lung): > 100 µM | GI50 (PC-3 prostate): 18.8 µM | TGI (PC-3 prostate): 59.6 µM | GI50 (OVCAR-8 ovarian): 24.6 µM | TGI (OVCAR-8 ovarian): 63.2 µM | GI50 (OVCAR-3 ovarian): 36.4 µM | TGI (OVCAR-3 ovarian): > 100 µM | GI50 (OVCAR-4 ovarian): 70.4 µM | TGI (OVCAR-4 ovarian): > 100 µM | GI50 (SR leukemia): 18.1 µM | TGI (SR leukemia): 48.1 µM | GI50 (HCT-116 colon): 21 µM | TGI (HCT-116 colon): 42.2 µM | GI50 (CCRF-CEM leukemia): 15 µM | TGI (CCRF-CEM leukemia): 37.6 µM | GI50 (U251 CNS): 28.2 µM | TGI (U251 CNS): > 100 µM | GI50 (SK-MEL-5 melanoma): 14.8 µM | TGI (SK-MEL-5 melanoma): 29.1 µM | GI50 (MCF7 breast): 38 µM | TGI (MCF7 breast): > 100 µM | GI50 (SNB-19 CNS): 39.3 µM | TGI (SNB-19 CNS): > 100 µM | GI50 (A549 NSCLC): 31.8 µM | TGI (A549 NSCLC): > 100 µM | GI50 (RXF 393 renal): 35.6 µM | TGI (RXF 393 renal): > 100 µM | GI50 (HOP-92 NSCLC): 10.7 µM | TGI (HOP-92 NSCLC): 34.6 µM | GI50 (BT-549 breast): 21.2 µM | TGI (BT-549 breast): 45.3 µM | GI50 (MALME-3M melanoma): 20.7 µM | TGI (MALME-3M melanoma): 50.6 µM | GI50 (NCI-H460 lung): 27.6 µM | TGI (NCI-H460 lung): > 100 µM | GI50 (IGROV1 ovarian): 25.5 µM | TGI (IGROV1 ovarian): > 100 µM | GI50 (NCI-H522 lung): 34.5 µM | TGI (NCI-H522 lung): > 100 µM | GI50 (KM12 colon): 23.9 µM | TGI (KM12 colon): > 100 µM | GI50 (COLO 205 colon): 37 µM | TGI (COLO 205 colon): > 100 µM | GI50 (ACHN renal): 31.7 µM | TGI (ACHN renal): > 100 µM | GI50 (HCC-2998 colon): 22.8 µM | TGI (HCC-2998 colon): 49.9 µM | GI50 (HCT-15 colon): 26.8 µM | TGI (HCT-15 colon): > 100 µM | GI50 (MDA-MB-435): 25.2 µM | TGI (MDA-MB-435): 80 µM | GI50 (M14 melanoma): 26.4 µM | TGI (M14 melanoma): 64.3 µM | GI50 (LOX IMVI melanoma): 24 µM | TGI (LOX IMVI melanoma): 64.7 µM | GI50 (HT29 colon): 43.3 µM | TGI (HT29 colon): > 100 µM | GI50 (T-47D breast): 44.9 µM | TGI (T-47D breast): > 100 µM | GI50 (SK-MEL-2 melanoma): 40.7 µM | TGI (SK-MEL-2 melanoma): > 100 µM | GI50 (MDA-MB-231 breast): 16 µM | TGI (MDA-MB-231 breast): 37.5 µM | GI50 (SW-620 colon): 17.2 µM | TGI (SW-620 colon): 38.3 µM | GI50 (UO-31 renal): 25.7 µM | TGI (UO-31 renal): > 100 µM | GI50 (SF-268 CNS): 34.7 µM | TGI (SF-268 CNS): > 100 µM | GI50 (SN12C renal): 18.7 µM | TGI (SN12C renal): 39.1 µM | GI50 (CAKI-1 renal): 35.5 µM | TGI (CAKI-1 renal): > 100 µM | GI50 (MOLT-4 leukemia): 32.6 µM | TGI (MOLT-4 leukemia): > 100 µM | GI50 (OVCAR-5 ovarian): 42.5 µM | TGI (OVCAR-5 ovarian): > 100 µM | GI50 (SK-MEL-28 melanoma): 37.9 µM | TGI (SK-MEL-28 melanoma): > 100 µM | GI50 (SF-295 CNS): 25.5 µM | TGI (SF-295 CNS): 75.6 µM | GI50 (HS 578T breast): 22.2 µM | TGI (HS 578T breast): 57.7 µM | GI50 (K-562 leukemia): 37.4 µM | TGI (K-562 leukemia): > 100 µM | GI50 (786-0 renal): 26 µM | TGI (786-0 renal): 65.1 µM | GI50 (EKVX NSCLC): 22.2 µM | TGI (EKVX NSCLC): 52.5 µM | GI50 (UACC-62 melanoma): 19.6 µM | TGI (UACC-62 melanoma): 43.5 µM | GI50 (RPMI-8226 leukemia): 13.1 µM | TGI (RPMI-8226 leukemia): 34.3 µM | GI50 (DU-145 prostate): 26.4 µM | TGI (DU-145 prostate): 66.7 µM | GI50 (NCI-H226 lung): 22.7 µM | TGI (NCI-H226 lung): 56.8 µM | GI50 (UACC-257 melanoma): 26.8 µM | TGI (UACC-257 melanoma): 61.9 µM | GI50 (SK-OV-3 ovarian): 49.6 µM | TGI (SK-OV-3 ovarian): > 100 µM | GI50 (SF-539 CNS): 20.6 µM | TGI (SF-539 CNS): 37.4 µM | GI50 (TK-10 renal): 47.9 µM | TGI (TK-10 renal): > 100 µM
